# According to ChEMBL document CHEMBL4002623, “Synthesis and in vitro activity of dicationic indolyl diphenyl ethers as novel potent antibiotic agents against drug-resistant bacteria” (Bioorg Med Chem Lett, 2017):
# What was measured:
# [1] = Cytotoxicity against HEK293T cells after 48 hrs by MTS assay; assay type: cell-based, HEK-293T; settings: human
# [2] = test system: Staphylococcus epidermidis; experiment: Antibacterial activity against methicillin-resistant Staphylococcus epidermidis 09-3 by agar dilution method; assay type: functional
# Enterococcus faecalis [3] = experiment: Antibacterial activity against vancomycin-sensitive Enterococcus faecalis ATCC 29212 by agar dilution method; assay type: functional
# Providencia rettgeri = experiment: Antibacterial activity against Providencia rettgeri ATCC 31052 by agar dilution method; assay type: functional
# Proteus vulgaris = experiment: Antibacterial activity against Proteus vulgaris ATCC 29905 by agar dilution method; assay type: functional
# Escherichia coli [4] = experiment: Antibacterial activity against extended-spectrum beta-lactamase-negative Escherichia coli ATCC 25922 by agar dilution method; assay type: functional
# Klebsiella pneumoniae [5] = experiment: Antibacterial activity against extended-spectrum beta-lactamase-positive Klebsiella pneumoniae 09-25 by agar dilution method; assay type: functional
# Pseudomonas aeruginosa [6] = experiment: Antibacterial activity against Pseudomonas aeruginosa ATCC 27853 by agar dilution method; assay type: functional
# Proteus mirabilis = experiment: Antibacterial activity against Proteus mirabilis 09-1 by agar dilution method; assay type: functional
# Enterococcus faecium [7] = experiment: Antibacterial activity against vancomycin-resistant Enterococcus faecium ATCC 700221 by agar dilution method; assay type: functional
# Staphylococcus aureus [8] = experiment: Antibacterial activity against methicillin-sensitive Staphylococcus aureus 09-6 by agar dilution method; assay type: functional
# [9] = test system: Staphylococcus epidermidis; experiment: Antibacterial activity against methicillin-sensitive Staphylococcus epidermidis 09-9 by agar dilution method; assay type: functional
# Morganella morganii = experiment: Antibacterial activity against Morganella morganii ATCC 25830 by agar dilution method; assay type: functional
# Citrobacter freundii = experiment: Antibacterial activity against Citrobacter freundii ATCC 43864 by agar dilution method; assay type: functional
# Klebsiella pneumoniae [10] = experiment: Antibacterial activity against extended-spectrum beta-lactamase-positive Klebsiella pneumoniae ATCC 700603 by agar dilution method; assay type: functional
# Enterococcus faecalis [11] = experiment: Antibacterial activity against vancomycin-sensitive Enterococcus faecalis 09-8 by agar dilution method; assay type: functional
# Klebsiella pneumoniae [12] = experiment: Antibacterial activity against extended-spectrum beta-lactamase-negative Klebsiella pneumoniae 7 by agar dilution method; assay type: functional
# Escherichia coli [13] = experiment: Antibacterial activity against extended-spectrum beta-lactamase-negative Escherichia coli 1515 by agar dilution method; assay type: functional
# Staphylococcus aureus [14] = experiment: Antibacterial activity against methicillin-resistant Staphylococcus aureus ATCC 33591 by agar dilution method; assay type: functional
# Escherichia coli [15] = experiment: Antibacterial activity against extended-spectrum beta-lactamase-negative Escherichia coli 09-20 by agar dilution method; assay type: functional
# Enterococcus faecalis [16] = experiment: Antibacterial activity against vancomycin-resistant Enterococcus faecalis 09-9 by agar dilution method; assay type: functional
# Staphylococcus aureus [17] = experiment: Antibacterial activity against methicillin-sensitive Staphylococcus aureus 15 by agar dilution method; assay type: functional
# Staphylococcus aureus [18] = experiment: Antibacterial activity against methicillin-sensitive Staphylococcus aureus ATCC 29213 by agar dilution method; assay type: functional
# Serratia marcescens = experiment: Antibacterial activity against Serratia marcescens 41002 by agar dilution method; assay type: functional
# Salmonella typhi = experiment: Antibacterial activity against Salmonella typhi H901 by agar dilution method; assay type: functional, Salmonella enterica subsp. enterica serovar Typhi; settings: Salmonella enterica
# Pseudomonas aeruginosa [19] = experiment: Antibacterial activity against Pseudomonas aeruginosa 09-14 by agar dilution method; assay type: functional
# [20] = test system: Staphylococcus epidermidis; experiment: Antibacterial activity against methicillin-sensitive Staphylococcus epidermidis ATCC 12228 by agar dilution method; assay type: functional
# Enterococcus faecium [21] = experiment: Antibacterial activity against vancomycin-sensitive Enterococcus faecium 09-10 by agar dilution method; assay type: functional
# Escherichia coli [22] = experiment: Antibacterial activity against extended-spectrum beta-lactamase-positive Escherichia coli 09-1 by agar dilution method; assay type: functional
# Staphylococcus aureus [23] = experiment: Antibacterial activity against methicillin-resistant Staphylococcus aureus 09-13 by agar dilution method; assay type: functional
# Enterobacter cloacae = experiment: Antibacterial activity against Enterobacter cloacae 45301 by agar dilution method; assay type: functional
# Klebsiella pneumoniae [24] = experiment: Antibacterial activity against extended-spectrum beta-lactamase-negative Klebsiella pneumoniae 09-8 by agar dilution method; assay type: functional
# Klebsiella aerogenes = experiment: Antibacterial activity against Enterobacter aerogenes 45102 by agar dilution method; assay type: functional
# Enterococcus faecalis [25] = experiment: Antibacterial activity against vancomycin-resistant Enterococcus faecalis ATCC 51299 by agar dilution method; assay type: functional
# Klebsiella pneumoniae [26] = experiment: Antibacterial activity against Klebsiella pneumoniae ATCC BAA-2146 expressing NDM-1 by agar dilution method; assay type: functional
# Enterococcus faecium [27] = experiment: Antibacterial activity against vancomycin-resistant Enterococcus faecium 05-8 by agar dilution method; assay type: functional
# Pseudomonas aeruginosa [28] = experiment: Antibacterial activity against Pseudomonas aeruginosa PAO1 by agar dilution method; assay type: functional
# [29] = test system: Acinetobacter calcoaceticus; experiment: Antibacterial activity against Acinetobacter calcoaceticus ATCC 19606 by agar dilution method; assay type: functional
Compound,CC50 at 48 h [1],MIC [2],MIC (Enterococcus faecalis [3]),MIC (Providencia rettgeri),MIC (Proteus vulgaris),MIC (Escherichia coli [4]),MIC (Klebsiella pneumoniae [5]),MIC (Pseudomonas aeruginosa [6]),MIC (Proteus mirabilis),MIC (Enterococcus faecium [7]),MIC (Staphylococcus aureus [8]),MIC [9],MIC (Morganella morganii),MIC (Citrobacter freundii),MIC (Klebsiella pneumoniae [10]),MIC (Enterococcus faecalis [11]),MIC (Klebsiella pneumoniae [12]),MIC (Escherichia coli [13]),MIC (Staphylococcus aureus [14]),MIC (Escherichia coli [15]),further results
N=C(c1ccc2cc(-c3ccc(Oc4ccc(-c5cc6ccc(C(=N)N7CCC(N8CCCC8)CC7)cc6[nH]5)cc4)cc3)[nH]c2c1)N1CCC(N2CCCC2)CC1,1.1 µg/mL,8 µg/mL,8 µg/mL,> 128 µg/mL,> 128 µg/mL,32 µg/mL,128 µg/mL,> 128 µg/mL,> 128 µg/mL,8 µg/mL,8 µg/mL,8 µg/mL,128 µg/mL,> 128 µg/mL,> 128 µg/mL,8 µg/mL,128 µg/mL,64 µg/mL,8 µg/mL,32 µg/mL,MIC (Enterococcus faecalis [16]): 16 µg/mL; MIC (Staphylococcus aureus [17]): 8 µg/mL; MIC (Staphylococcus aureus [18]): 8 µg/mL; MIC (Serratia marcescens): > 128 µg/mL; MIC (Salmonella typhi): 32 µg/mL; MIC (Pseudomonas aeruginosa [19]): > 128 µg/mL; MIC [20]: 3 to 8 µg/mL; MIC (Enterococcus faecium [21]): 8 µg/mL; MIC (Escherichia coli [22]): 64 µg/mL; MIC (Staphylococcus aureus [23]): 8 µg/mL; MIC (Enterobacter cloacae): 64 µg/mL; MIC (Klebsiella pneumoniae [24]): 128 µg/mL; MIC (Klebsiella aerogenes): 128 µg/mL; MIC (Enterococcus faecalis [25]): 8 µg/mL; MIC (Klebsiella pneumoniae [26]): 128 µg/mL; MIC (Enterococcus faecium [27]): 8 µg/mL; MIC (Pseudomonas aeruginosa [28]): > 128 µg/mL; MIC [29]: > 128 µg/mL
CC(C)NC(=N)c1ccc2cc(-c3ccc(Oc4ccc(-c5cc6ccc(C(=N)NC(C)C)cc6[nH]5)cc4)cc3)[nH]c2c1,7.3 µg/mL,1 µg/mL,1 µg/mL,64 µg/mL,64 µg/mL,16 µg/mL,64 µg/mL,64 µg/mL,64 µg/mL,1 µg/mL,1 µg/mL,1 µg/mL,16 µg/mL,64 µg/mL,64 µg/mL,1 µg/mL,64 µg/mL,32 µg/mL,1 µg/mL,32 µg/mL,MIC (Enterococcus faecalis [16]): 2 µg/mL; MIC (Staphylococcus aureus [17]): 1 µg/mL; MIC (Staphylococcus aureus [18]): 1 µg/mL; MIC (Serratia marcescens): 64 µg/mL; MIC (Salmonella typhi): 32 µg/mL; MIC (Pseudomonas aeruginosa [19]): 64 µg/mL; MIC [20]: 1 µg/mL; MIC (Enterococcus faecium [21]): 2 µg/mL; MIC (Escherichia coli [22]): 32 µg/mL; MIC (Staphylococcus aureus [23]): 1 µg/mL; MIC (Enterobacter cloacae): 64 µg/mL; MIC (Klebsiella pneumoniae [24]): 64 µg/mL; MIC (Klebsiella aerogenes): 64 µg/mL; MIC (Enterococcus faecalis [25]): 2 µg/mL; MIC (Klebsiella pneumoniae [26]): 64 µg/mL; MIC (Enterococcus faecium [27]): 1 µg/mL; MIC (Pseudomonas aeruginosa [28]): > 128 µg/mL; MIC [29]: 128 µg/mL
